According to the OligoGym collection:
HELM strings list units from the 5' end as sugar, base in round brackets, then linkage (d deoxyribose, r ribose, m 2'-O-methyl, p phosphodiester). Strings are as the collection lists them; they lack the last nucleoside at the 3' end of the tested compound. [moe] = 2'-O-(2-methoxyethyl) (MOE); [sp] = phosphorothioate linkage; [m5C] = 5-methylcytosine

Molecular target: UBE3A-ATS
Experiment: mouse, dose not given
Details: ASO

Q: How did the 3 h FOB score turn out when “RNA1{[moe](T)[sp].[moe]([m5C])p.[moe](A)p.[moe](A)[sp].d([m5C])[sp].d([m5C])[sp].d(A)[sp].d(A)[sp].d(T)[sp].d(T)[sp].d(T)[sp].d(G)[sp].[moe]([m5C])p.[moe](T)p.[moe](A)p.[moe](T)[sp].[moe](T)}$$$$ (last 3' nucleoside missing)” was run?
A: 0.7 score 0-7

Q: Which 3 h FOB score does the source give for “RNA1{[moe](T)[sp].[moe]([m5C])p.[moe](A)p.[moe](A)p.[moe]([m5C])[sp].d([m5C])[sp].d(A)[sp].d(A)[sp].d(T)[sp].d(T)[sp].d(T)[sp].d(G)[sp].d([m5C])[sp].[moe](T)p.[moe](A)p.[moe](T)[sp].[moe](T)}$$$$ (last 3' nucleoside missing)” here?
A: 3 score 0-7

Q: With “RNA1{[moe](T)[sp].[moe]([m5C])p.[moe](A)p.[moe](A)p.[moe]([m5C])p.[moe]([m5C])[sp].d(A)[sp].d(A)[sp].d(T)[sp].d(T)[sp].d(T)[sp].d(G)[sp].d([m5C])[sp].d(T)[sp].[moe](A)p.[moe](T)[sp].[moe](T)}$$$$ (last 3' nucleoside missing)” as the substance, how does the 3 h FOB score read?
A: 3 score 0-7

Q: “RNA1{[moe](T)[sp].[moe]([m5C])p.[moe](A)p.[moe](A)p.[moe]([m5C])p.d(T)[sp].d(A)[sp].d(T)[sp].d(T)[sp].d(T)[sp].d([m5C])[sp].d(T)[sp].d(A)[sp].d(T)[sp].d([m5C])[sp].[moe](A)p.[moe](A)p.[moe](G)[sp].[moe](G)}$$$$ (last 3' nucleoside missing)” was tested. Which 3 h FOB score did it give?
A: 0 score 0-7

Q: How did the 3 h FOB score turn out when “RNA1{[moe](T)[sp].[moe]([m5C])p.[moe](A)p.[moe](A)p.[moe]([m5C])p.d([m5C])[sp].d(A)[sp].d(A)[sp].d(T)[sp].d(T)[sp].d(T)[sp].d(G)[sp].d([m5C])[sp].d(T)[sp].d(A)[sp].[moe](T)p.[moe](T)p.[moe]([m5C])[sp].[moe](A)}$$$$ (last 3' nucleoside missing)” was run?
A: 2 score 0-7

Q: With “RNA1{[moe](T)[sp].[moe]([m5C])p.[moe](A)p.[moe](G)[sp].d(T)[sp].d(T)[sp].d(A)[sp].d(G)[sp].d(G)[sp].d(T)[sp].d(T)[sp].d(A)[sp].[moe](G)p.[moe](T)p.[moe](G)p.[moe]([m5C])[sp].[moe](A)}$$$$ (last 3' nucleoside missing)” as the substance, how does the 3 h FOB score read?
A: 2.3 score 0-7

Q: How did the 3 h FOB score turn out when “RNA1{[moe](T)[sp].[moe]([m5C])p.[moe](A)p.[moe](G)p.[moe](A)p.d(T)[sp].d(T)[sp].d([m5C])[sp].d([m5C])[sp].d(T)[sp].d(A)[sp].d(A)[sp].d(A)[sp].d(T)[sp].d(A)[sp].[moe]([m5C])p.[moe](G)p.[moe]([m5C])[sp].[moe](A)}$$$$ (last 3' nucleoside missing)” was run?
A: 0 score 0-7

Q: How did the 3 h FOB score turn out when “RNA1{[moe](T)[sp].[moe]([m5C])p.[moe](A)p.[moe](G)p.[moe](T)[sp].d(T)[sp].d(A)[sp].d(G)[sp].d(G)[sp].d(T)[sp].d(T)[sp].d(A)[sp].d(G)[sp].[moe](T)p.[moe](G)p.[moe]([m5C])[sp].[moe](A)}$$$$ (last 3' nucleoside missing)” was run?
A: 4.3 score 0-7

Q: How did the 3 h FOB score turn out when “RNA1{[moe](T)[sp].[moe]([m5C])p.[moe](A)p.[moe](G)p.[moe](T)p.[moe](T)[sp].d(A)[sp].d(G)[sp].d(G)[sp].d(T)[sp].d(T)[sp].d(A)[sp].d(G)[sp].d(T)[sp].[moe](G)p.[moe]([m5C])[sp].[moe](A)}$$$$ (last 3' nucleoside missing)” was run?
A: 3 score 0-7

Q: Which 3 h FOB score does the source give for “RNA1{[moe](T)[sp].[moe]([m5C])p.[moe](A)p.[moe](G)p.[moe](T)p.[moe](T)p.d(A)[sp].d(G)[sp].d(G)[sp].d(T)[sp].d(T)[sp].d(A)[sp].d(G)[sp].d(T)[sp].d(G)[sp].d([m5C])[sp].[moe](A)p.[moe]([m5C])[sp].[moe](A)}$$$$ (last 3' nucleoside missing)” here?
A: 4.8 score 0-7

Q: How did the 3 h FOB score turn out when “RNA1{[moe](T)[sp].[moe]([m5C])p.[moe](A)p.[moe](G)p.[moe](T)p.d(T)[sp].d(A)[sp].d(G)[sp].d(G)[sp].d(T)[sp].d(T)[sp].d(A)[sp].d(G)[sp].d(T)[sp].d(G)[sp].[moe]([m5C])p.[moe](A)p.[moe]([m5C])[sp].[moe](A)}$$$$ (last 3' nucleoside missing)” was run?
A: 5 score 0-7

Q: For “RNA1{[moe](T)[sp].[moe]([m5C])p.[moe](A)p.[moe](G)p.[moe](T)p.d(T)[sp].d(A)[sp].d(G)[sp].d(T)[sp].d([m5C])[sp].d(A)[sp].d(G)[sp].d(G)[sp].d(T)[sp].d(T)[sp].[moe](A)p.[moe](G)p.[moe](G)[sp].[moe](G)}$$$$ (last 3' nucleoside missing)”, which 3 h FOB score is on record?
A: 4.2 score 0-7

Q: Which 3 h FOB score does the source give for “RNA1{[moe](T)[sp].[moe]([m5C])p.[moe](A)p.[moe](G)p.[moe]([m5C])p.d(A)[sp].d([m5C])[sp].d(T)[sp].d(T)[sp].d(A)[sp].d(G)[sp].d(G)[sp].d(T)[sp].d(A)[sp].d(G)[sp].[moe](T)p.[moe](T)p.[moe]([m5C])[sp].[moe](A)}$$$$ (last 3' nucleoside missing)” here?
A: 5 score 0-7

Q: “RNA1{[moe](T)[sp].[moe]([m5C])p.[moe](A)p.[moe](G)p.d(T)[sp].d(T)[sp].d(A)[sp].d(G)[sp].d(G)[sp].d(T)[sp].d(T)[sp].d(A)[sp].d(G)[sp].d(T)[sp].[moe](G)p.[moe]([m5C])p.[moe](A)p.[moe]([m5C])[sp].[moe](A)}$$$$ (last 3' nucleoside missing)” was tested. Which 3 h FOB score did it give?
A: 4 score 0-7

Q: For “RNA1{[moe](T)[sp].[moe]([m5C])p.[moe](A)p.[moe](T)[sp].d([m5C])[sp].d(T)[sp].d([m5C])[sp].d(G)[sp].d(G)[sp].d(G)[sp].d(T)[sp].d(A)[sp].[moe](T)p.[moe](A)p.[moe](T)p.[moe](A)[sp].[moe](A)}$$$$ (last 3' nucleoside missing)”, which 3 h FOB score is on record?
A: 5.3 score 0-7

Q: Which 3 h FOB score does the source give for “RNA1{[moe](T)[sp].[moe]([m5C])p.[moe](A)p.[moe](T)p.[moe](G)p.d(T)[sp].d(G)[sp].d([m5C])[sp].d(A)[sp].d(T)[sp].d(A)[sp].d([m5C])[sp].d([m5C])[sp].d([m5C])[sp].d(A)[sp].[moe](G)p.[moe](G)p.[moe](G)[sp].[moe](T)}$$$$ (last 3' nucleoside missing)” here?
A: 1 score 0-7

Q: For “RNA1{[moe](T)[sp].[moe]([m5C])p.[moe](A)p.[moe](T)p.[moe](T)p.d(A)[sp].d(T)[sp].d(T)[sp].d([m5C])[sp].d(T)[sp].d([m5C])[sp].d(T)[sp].d(A)[sp].d(G)[sp].d(T)[sp].[moe](G)p.[moe]([m5C])p.[moe]([m5C])[sp].[moe](T)}$$$$ (last 3' nucleoside missing)”, which 3 h FOB score is on record?
A: 1 score 0-7

Q: With “RNA1{[moe](T)[sp].[moe]([m5C])p.[moe](A)p.[moe](T)p.[moe]([m5C])[sp].d(T)[sp].d([m5C])[sp].d(G)[sp].d(G)[sp].d(G)[sp].d(T)[sp].d(A)[sp].d(T)[sp].[moe](A)p.[moe](T)p.[moe](A)[sp].[moe](A)}$$$$ (last 3' nucleoside missing)” as the substance, how does the 3 h FOB score read?
A: 3 score 0-7

Q: For “RNA1{[moe](T)[sp].[moe]([m5C])p.[moe](A)p.[moe](T)p.[moe]([m5C])p.[moe](T)[sp].d([m5C])[sp].d(G)[sp].d(G)[sp].d(G)[sp].d(T)[sp].d(A)[sp].d(T)[sp].d(A)[sp].[moe](T)p.[moe](A)[sp].[moe](A)}$$$$ (last 3' nucleoside missing)”, which 3 h FOB score is on record?
A: 2.3 score 0-7

Q: For “RNA1{[moe](T)[sp].[moe]([m5C])p.[moe](A)p.[moe](T)p.[moe]([m5C])p.[moe](T)p.d([m5C])[sp].d(G)[sp].d(G)[sp].d(G)[sp].d(T)[sp].d(A)[sp].d(T)[sp].d(A)[sp].d(T)[sp].d(A)[sp].[moe](A)p.[moe](A)[sp].[moe](T)}$$$$ (last 3' nucleoside missing)”, which 3 h FOB score is on record?
A: 2 score 0-7

Q: With “RNA1{[moe](T)[sp].[moe]([m5C])p.[moe](A)p.[moe](T)p.[moe]([m5C])p.d(T)[sp].d([m5C])[sp].d(G)[sp].d(G)[sp].d(G)[sp].d(T)[sp].d(A)[sp].d(T)[sp].d(A)[sp].d(T)[sp].[moe](A)p.[moe](A)p.[moe](A)[sp].[moe](T)}$$$$ (last 3' nucleoside missing)” as the substance, how does the 3 h FOB score read?
A: 3.3 score 0-7

Q: With “RNA1{[moe](T)[sp].[moe]([m5C])p.[moe](A)p.[moe](T)p.d([m5C])[sp].d(T)[sp].d([m5C])[sp].d(G)[sp].d(G)[sp].d(G)[sp].d(T)[sp].d(A)[sp].d(T)[sp].d(A)[sp].[moe](T)p.[moe](A)p.[moe](A)p.[moe](A)[sp].[moe](T)}$$$$ (last 3' nucleoside missing)” as the substance, how does the 3 h FOB score read?
A: 4 score 0-7

Q: “RNA1{[moe](T)[sp].[moe]([m5C])p.[moe](A)p.[moe]([m5C])[sp].d([m5C])[sp].d(A)[sp].d(T)[sp].d(T)[sp].d(T)[sp].d(T)[sp].d(G)[sp].d(A)[sp].[moe]([m5C])p.[moe]([m5C])p.[moe](T)p.[moe](T)[sp].[moe]([m5C])}$$$$ (last 3' nucleoside missing)” was tested. Which 3 h FOB score did it give?
A: 0.3 score 0-7

Q: How did the 3 h FOB score turn out when “RNA1{[moe](T)[sp].[moe]([m5C])p.[moe](A)p.[moe]([m5C])p.[moe](A)p.d(T)[sp].d(T)[sp].d(A)[sp].d([m5C])[sp].d([m5C])[sp].d([m5C])[sp].d(A)[sp].d(T)[sp].d([m5C])[sp].d([m5C])[sp].[moe](G)p.[moe](T)p.[moe](T)[sp].[moe]([m5C])}$$$$ (last 3' nucleoside missing)” was run?
A: 0 score 0-7

Q: With “RNA1{[moe](T)[sp].[moe]([m5C])p.[moe](A)p.[moe]([m5C])p.[moe](T)p.d(G)[sp].d(A)[sp].d(G)[sp].d(T)[sp].d(T)[sp].d(T)[sp].d(T)[sp].d(T)[sp].d(G)[sp].d(T)[sp].[moe](A)p.[moe](G)p.[moe](T)[sp].[moe](T)}$$$$ (last 3' nucleoside missing)” as the substance, how does the 3 h FOB score read?
A: 3.7 score 0-7

Q: “RNA1{[moe](T)[sp].[moe]([m5C])p.[moe](A)p.[moe]([m5C])p.[moe]([m5C])[sp].d(A)[sp].d(T)[sp].d(T)[sp].d(T)[sp].d(T)[sp].d(G)[sp].d(A)[sp].d([m5C])[sp].[moe]([m5C])p.[moe](T)p.[moe](T)[sp].[moe]([m5C])}$$$$ (last 3' nucleoside missing)” was tested. Which 3 h FOB score did it give?
A: 2 score 0-7

Q: Which 3 h FOB score does the source give for “RNA1{[moe](T)[sp].[moe]([m5C])p.[moe](A)p.[moe]([m5C])p.[moe]([m5C])p.[moe](A)[sp].d(T)[sp].d(T)[sp].d(T)[sp].d(T)[sp].d(G)[sp].d(A)[sp].d([m5C])[sp].d([m5C])[sp].[moe](T)p.[moe](T)[sp].[moe]([m5C])}$$$$ (last 3' nucleoside missing)” here?
A: 0.3 score 0-7
